Measured values as given in US4871716A, “Magnetically responsive, hydrophilic microspheres for incorporation of therapeutic substances and methods of preparation thereof” (priority 1986, dated 1989).

Assays:
[1] = Toxicity in CD-1 mice by i.p. injection; type: in vivo, CD-1 white female mice; details: mouse, in vivo, ip, 0.6 mg; 600 μg free AD; read-out: animals killed
Method: (§1) CD-1 white female mice, 5-7 weeks of age, weighing 30-33 g were injected by the intraperitoneal (i.p.) route with AD at concentrations of 0.6 mg and 1.5 mg dissolved in 0.5 ml of sterile saline. A second group of animals were injected with AD-PGA(15%)-HSA/MS-Q with 0.6, 1.5, and 2.5 mg of bound AD. For each concentration of the free and bound drug, 5 mice were used. PGA(15%)-HSA/MS-Q without AD was used for a control group and injected in equivalent weight amounts. Animals were then observed over a two-month period and fatalities were recorded for each group and tabulated.

[2] = test system: CD-1 mice; experiment: Toxicity in CD-1 mice by i.p. injection; type: in vivo, CD-1 white female mice
Method: as §1

COc1cccc2c1C(=O)c1c(O)c3c(c(O)c1C2=O)C[C@@](O)(C(=O)CO)C[C@@H]3O[C@H]1C[C@H](N)[C@H](O)[C@H](C)O1 [AD, Adriamycin]
mortality at 1460 h [1]: > 80%
Survival from Time of Administration ([2]; AD 0.6 mg i.p. (free or bound), 7 days): 5/5
Survival from Time of Administration ([2]; AD 0.6 mg i.p. (free or bound), 14 days): 1/5
Survival from Time of Administration ([2]; AD 0.6 mg i.p. (free or bound), 21 days): 1/5
Survival from Time of Administration ([2]; AD 0.6 mg i.p. (free or bound), 28 days): 1/5
Survival from Time of Administration ([2]; AD 0.6 mg i.p. (free or bound), 35 days): 1/5
Survival from Time of Administration ([2]; AD 1.5 mg i.p. (free or bound), 7 days): 5/5
Survival from Time of Administration ([2]; AD 1.5 mg i.p. (free or bound), 14 days): 0/5
ulcer development at site of injection ([2]; i.p.): All animals treated with free AD developed these ulcers
